Measured values from article PMC7468206, “Molecular Deceleration Regulates Toxicant Release to Prevent Cell Damage in Pseudomonas putida S16 (DSM 28022)” (mBio, 2020).

Molecular target: T1, full-length (FL) wild-type (WT) NicA2 (Pseudomonas putida, UniProt F8G0P2)
T1 construct: full length, C-terminal 6xHis (pET28a), E. coli BL21(DE3); FAD-containing; the assays say only WT NicA2, full length inferred from cloning section
T1 sequence (F8G0P2 1-482): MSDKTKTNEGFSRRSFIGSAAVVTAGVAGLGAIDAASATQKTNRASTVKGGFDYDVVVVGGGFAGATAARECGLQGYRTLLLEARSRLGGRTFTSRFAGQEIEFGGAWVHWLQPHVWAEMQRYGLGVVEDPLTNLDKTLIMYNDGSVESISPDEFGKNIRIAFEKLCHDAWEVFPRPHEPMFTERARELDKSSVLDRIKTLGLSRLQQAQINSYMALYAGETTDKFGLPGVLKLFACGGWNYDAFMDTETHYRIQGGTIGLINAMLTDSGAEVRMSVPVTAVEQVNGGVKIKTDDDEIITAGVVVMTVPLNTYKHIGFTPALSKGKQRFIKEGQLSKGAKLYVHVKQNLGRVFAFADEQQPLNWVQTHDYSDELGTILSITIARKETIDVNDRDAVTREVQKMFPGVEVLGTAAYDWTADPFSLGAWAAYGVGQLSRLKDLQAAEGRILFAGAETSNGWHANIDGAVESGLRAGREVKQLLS
Experiment: Ni-NTA removal of enzyme, GC of free versus total product
Assay type: binding
Details: 25 °C, 1.5 h, equimolar nicotine; product formed in situ; construct (full length or 21-482) not stated

Question: Which “Ni-NTA removal of enzyme, GC of free versus total product” value does the source give for `CNCCCC(=O)c1cccnc1` [pseudooxynicotine] here?
Answer: only one-fourth of the PN produced in the reaction system was released to solution by NicA2
